ChEMBL document CHEMBL3885861, “Open TG-GATES”

Species on record: Rattus norvegicus
Assay: Open TG-GATES - Regimen: Single
Type: toxicity, organism-based, Sprague-Dawley
Set-up: regimen Single, gender Male, age 6 weeks
Details: in vivo, ip, 450 mg/kg, route intraperitoneal injection, dose level Middle; for APTT / Bas / Eos / Fbg / Hb / Ht / Lym / MCH / MCHC / MCV / Mono / Neu / PT / Plat / RBC / Ret / WBC: tissue Blood; for KIDNEY_L / KIDNEY_R / KIDNEY_TOTAL: tissue Kidney; for LIVER: tissue Liver; for A/G / ALP / ALT / AST / BUN / CRE / Ca / Cl / DBIL / GLC / IP / K / LDH / Na / PL / RALB / TBIL / TC / TG / TP / gamma-GTP: tissue Plasma

CCCCS(=N)(=O)CCC(N)C(=O)O (configuration not stated) [BUTHIONINE SULFOXIMINE]
TERMINAL_BW (3 h): 218.6 g | APTT (3 h): 16.6 s | Bas (3 h): 0% | Eos (3 h): 0.8% | Fbg (3 h): 216.4 mg/dL | Hb (3 h): 13.3 g/dL | Ht (3 h): 39.8% | Lym (3 h): 69% | MCH (3 h): 21.9 pg | MCHC (3 h): 33.3% | MCV (3 h): 65.7 fL | Mono (3 h): 7.8% | Neu (3 h): 22.2% | PT (3 h): 12.1 s | Plat (3 h): 112.2 x10_4/uL | RBC (3 h): 606.8 x10_4/ul | Ret (3 h): 8.5% | WBC (3 h): 79.6 x10_2/uL | KIDNEY_L (3 h): 1 g | KIDNEY_R (3 h): 1 g | KIDNEY_TOTAL (3 h): 2 g | LIVER (3 h): 10.2 g | A/G (3 h): 2.1 | ALP (3 h): 794 IU/L | ALT (3 h): 42.6 IU/L | AST (3 h): 72 IU/L | BUN (3 h): 14 mg/dL | CRE (3 h): 0.5 mg/dL | Ca (3 h): 11 mg/dL | Cl (3 h): 104 meq/L | DBIL (3 h): 0.062 mg/dL | GLC (3 h): 191.2 mg/dL | IP (3 h): 10.5 mg/dL | K (3 h): 4.5 meq/L | LDH (3 h): 93 IU/L | Na (3 h): 140.2 meq/L | PL (3 h): 137.4 mg/dL | RALB (3 h): 3.7 g/dL | TBIL (3 h): 0.3 mg/dL | TC (3 h): 71.4 mg/dL | TG (3 h): 62.8 mg/dL | TP (3 h): 5.5 g/dL | gamma-GTP (3 h): 1.8 IU/L | TERMINAL_BW (6 h): 217.2 g | APTT (6 h): 16.6 s | Bas (6 h): 0% | Eos (6 h): 0.8% | Fbg (6 h): 221.2 mg/dL | Hb (6 h): 13.4 g/dL | Ht (6 h): 40% | Lym (6 h): 57.6% | MCH (6 h): 22 pg | MCHC (6 h): 33.5% | MCV (6 h): 65.6 fL | Mono (6 h): 4.6% | Neu (6 h): 37.2% | PT (6 h): 11 s | Plat (6 h): 108.9 x10_4/uL | RBC (6 h): 609.8 x10_4/ul | Ret (6 h): 8.3% | WBC (6 h): 96.1 x10_2/uL | KIDNEY_L (6 h): 1 g | KIDNEY_R (6 h): 1 g | KIDNEY_TOTAL (6 h): 2 g | LIVER (6 h): 9.4 g | A/G (6 h): 2 | ALP (6 h): 837.2 IU/L | ALT (6 h): 32 IU/L | AST (6 h): 68.8 IU/L | BUN (6 h): 11.4 mg/dL | CRE (6 h): 0.7 mg/dL | Ca (6 h): 10.8 mg/dL | Cl (6 h): 104.8 meq/L | DBIL (6 h): 0.016 mg/dL | GLC (6 h): 193.2 mg/dL | IP (6 h): 10 mg/dL | K (6 h): 4.6 meq/L | LDH (6 h): 100.6 IU/L | Na (6 h): 140.4 meq/L | PL (6 h): 129.8 mg/dL | RALB (6 h): 3.5 g/dL | TBIL (6 h): 0.3 mg/dL | TC (6 h): 73.2 mg/dL | TG (6 h): 43.2 mg/dL | TP (6 h): 5.3 g/dL | gamma-GTP (6 h): 1.2 IU/L | TERMINAL_BW (9 h): 210.3 g | APTT (9 h): 17 s | Bas (9 h): 0% | Eos (9 h): 0.8% | Fbg (9 h): 253 mg/dL | Hb (9 h): 13.3 g/dL | Ht (9 h): 40% | Lym (9 h): 63.2% | MCH (9 h): 21.4 pg | MCHC (9 h): 33.2% | MCV (9 h): 64.5 fL | Mono (9 h): 3.8% | Neu (9 h): 32.2% | PT (9 h): 11 s | Plat (9 h): 113.1 x10_4/uL | RBC (9 h): 620 x10_4/ul | Ret (9 h): 8.4% | WBC (9 h): 93.4 x10_2/uL | KIDNEY_L (9 h): 1 g | KIDNEY_R (9 h): 1 g | KIDNEY_TOTAL (9 h): 1.9 g | LIVER (9 h): 8.4 g | A/G (9 h): 2.1 | ALP (9 h): 759.2 IU/L | ALT (9 h): 31.2 IU/L | AST (9 h): 61 IU/L | BUN (9 h): 11.8 mg/dL | CRE (9 h): 0.6 mg/dL | Ca (9 h): 11 mg/dL | Cl (9 h): 107 meq/L | DBIL (9 h): 0.01 mg/dL | GLC (9 h): 196.2 mg/dL | IP (9 h): 9.6 mg/dL | K (9 h): 4.8 meq/L | LDH (9 h): 79.4 IU/L | Na (9 h): 139.2 meq/L | PL (9 h): 144.2 mg/dL | RALB (9 h): 3.7 g/dL | TBIL (9 h): 0.3 mg/dL | TC (9 h): 84.4 mg/dL | TG (9 h): 25 mg/dL | TP (9 h): 5.5 g/dL | gamma-GTP (9 h): 1.2 IU/L | TERMINAL_BW (24 h): 229.8 g | APTT (24 h): 16.6 s | Bas (24 h): 0% | Eos (24 h): 1.2% | Fbg (24 h): 254 mg/dL | Hb (24 h): 13.2 g/dL | Ht (24 h): 39.6% | Lym (24 h): 70.8% | MCH (24 h): 21.4 pg | MCHC (24 h): 33.2% | MCV (24 h): 64.4 fL | Mono (24 h): 9.4% | Neu (24 h): 18.8% | PT (24 h): 11.5 s | Plat (24 h): 126.4 x10_4/uL | RBC (24 h): 616.6 x10_4/ul | Ret (24 h): 8.8% | WBC (24 h): 85.5 x10_2/uL | KIDNEY_L (24 h): 1 g | KIDNEY_R (24 h): 1.1 g | KIDNEY_TOTAL (24 h): 2.1 g | LIVER (24 h): 11.1 g | A/G (24 h): 1.8 | ALP (24 h): 1015.4 IU/L | ALT (24 h): 30.2 IU/L | AST (24 h): 60 IU/L | BUN (24 h): 19.2 mg/dL | CRE (24 h): 0.5 mg/dL | Ca (24 h): 11.1 mg/dL | Cl (24 h): 104.6 meq/L | DBIL (24 h): 0.008 mg/dL | GLC (24 h): 196.6 mg/dL | IP (24 h): 8.3 mg/dL | K (24 h): 4.4 meq/L | LDH (24 h): 98 IU/L | Na (24 h): 140 meq/L | PL (24 h): 149.4 mg/dL | RALB (24 h): 3.7 g/dL | TBIL (24 h): 0.3 mg/dL | TC (24 h): 80.6 mg/dL | TG (24 h): 95.2 mg/dL | TP (24 h): 5.8 g/dL | gamma-GTP (24 h): 1.6 IU/L
